Assay results as given in paper PMC9782245, “Synthesis and Structural Optimization of 2,7,9-Trisubstituted purin-8-ones as FLT3-ITD Inhibitors” (International Journal of Molecular Sciences, 2022).
“And” between values parts separate entries of the source, which are not always exact repeats. Identical values can stand only once.

Legend:
[1] = test system: oncogenic variants of FLT3; parameters: method as in PMID 28418845; conditions: cited from earlier work
CDK2/E = CDK2/E (Homo sapiens, UniProt P24941); test: Kinase inhibition assay CDK2/E; assay type: biochemical; conditions: at least duplicate experiments; read-out: IC50 CDK2/E
Experimental: (§1) Newly prepared compounds 12–15 were assayed for inhibition of FLT3-ITD kinase as well as CDK4 and CDK2, known off-targets of structurally related compounds. We observed that CDK4 was sensitive to nearly all compounds with IC50 values in mid-nanomolar values.
(§2) CDK/cyclin complexes and FLT3 kinases were assayed as previously described. Protein kinase selectivity was evaluated at a single concentration (1 µM) by screening against 30 enzymes at Eurofins Discovery (France).

FLT3-ITD = biological target: T1, FLT3-ITD (Homo sapiens, UniProt P36888, ITD); test: Kinase inhibition assay FLT3-ITD; assay type: biochemical; conditions: at least duplicate experiments; read-out: IC50 FLT3-ITD
T1 sequence (P36888 27-993): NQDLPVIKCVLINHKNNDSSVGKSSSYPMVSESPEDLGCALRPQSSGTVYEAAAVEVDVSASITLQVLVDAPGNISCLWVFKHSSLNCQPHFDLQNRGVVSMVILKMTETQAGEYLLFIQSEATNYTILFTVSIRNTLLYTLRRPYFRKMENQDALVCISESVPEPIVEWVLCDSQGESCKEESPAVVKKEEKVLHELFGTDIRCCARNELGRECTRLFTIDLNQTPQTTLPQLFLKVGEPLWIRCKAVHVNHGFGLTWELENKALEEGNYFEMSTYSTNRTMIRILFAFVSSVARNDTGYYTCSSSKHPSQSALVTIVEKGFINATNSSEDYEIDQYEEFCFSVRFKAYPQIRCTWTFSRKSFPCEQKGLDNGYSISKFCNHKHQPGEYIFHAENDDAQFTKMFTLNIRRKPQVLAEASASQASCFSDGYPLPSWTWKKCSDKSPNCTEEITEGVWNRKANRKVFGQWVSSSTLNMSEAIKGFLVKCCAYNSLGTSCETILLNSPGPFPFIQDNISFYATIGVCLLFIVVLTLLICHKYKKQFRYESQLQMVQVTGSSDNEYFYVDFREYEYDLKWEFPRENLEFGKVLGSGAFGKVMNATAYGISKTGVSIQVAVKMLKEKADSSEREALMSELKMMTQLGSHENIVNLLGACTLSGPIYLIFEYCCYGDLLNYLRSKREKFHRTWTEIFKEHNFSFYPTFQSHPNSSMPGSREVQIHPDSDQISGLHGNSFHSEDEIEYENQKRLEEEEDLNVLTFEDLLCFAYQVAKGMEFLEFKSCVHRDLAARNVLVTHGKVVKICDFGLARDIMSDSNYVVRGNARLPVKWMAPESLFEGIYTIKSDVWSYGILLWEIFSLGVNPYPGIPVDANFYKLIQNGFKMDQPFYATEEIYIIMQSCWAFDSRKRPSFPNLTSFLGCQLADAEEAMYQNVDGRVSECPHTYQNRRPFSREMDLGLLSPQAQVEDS
Experimental: as §1, §2

MV4-11 cells [2] = test: Flow cytometric cell cycle analysis, MV4-11; assay type: cell-based, Human; conditions: 24 h; for effect on cell cycle (G1 arrest) in MV4-11: 200 nM
Experimental: (§3) FLT3 inhibition causes G1-cell cycle arrest in FLT3-dependent cell lines such as MV4-11; we, therefore, performed flow cytometric analysis to evaluate cell cycle changes in MV4-11 and K562 cell lines treated with 200 nM compounds for 24 h. […] Specifically, 18 compounds arrested >85% of cells in the G1 phase, which is >30% cells in the G1 phase of the cell cycle than in control cells (Figure 4A).
(§4) Finally, we performed flow cytometric analysis with different concentrations of 15a in MV4-11 and MOLM13 (another FLT-ITD positive cell line) and K562 cell lines treated for 24 h (Figure 5).
(§5) Asynchronously growing cells were seeded into a 96-well plate and, after a preincubation period, treated with tested compounds for 24 h. The treated cells were stained directly (or after trypsinization for the adherent cells) with the 5× staining solution (17 mM trisodium citrate dihydrate, 0.5% IGEPAL CA-630, 7.5 mM spermine tetrahydrochloride, and 2.5 mM Tris; pH 7.6 containing […] propidium iodide). After the staining, DNA content was analyzed using flow cytometry using a 488 nm laser (BD FACS Verse with software BD FACSuite^TM, version 1.0.6). Cell cycle distribution was analyzed using ModFit LT (Verity Software House, version 5.0). Palbociclib, trilaciclib, and quizartinib were purchased from MedChemExpress, Monmouth Junction, NJ, USA.

K562 cells [3] = test: Resazurin-based viability assay, K562; assay type: cell-based; conditions: Homo sapiens, 72 h, at least duplicate experiments
From the text: (§6) In parallel to kinase assays, we measured the effect of compounds on the viability of cancer cell lines MV4-11 and K562 using a resazurin-based assay. MV4-11 is an AML cell line dependent on a constitutively activated FLT3-ITD kinase with high sensitivity to FLT3 inhibition, K562 cells (chronic myelogenous leukemia) are independent on FLT3.
(§7) Human cell lines were obtained from the European Collection of Authenticated Cell Cultures (K562) and Cell lines service (MV4-11) and were cultivated according to the provider’s instructions. Briefly, cells were maintained in RPMI-1640 (MV4-11) or DMEM (K562) supplemented with 10% fetal bovine serum, penicillin (100 U/mL), and streptomycin (0.1 mg/mL) at 37 °C in 5% CO2. For the viability assays, cells were treated in triplicate with six different doses of each compound for 72 h. After treatments, the resazurin (Sigma Aldrich, St. Louis, MO, USA) solution was added for 4 h, and the fluorescence of resorufin corresponding to live cells was measured at 544/590 nm (excitation/emission) using a Fluoroskan Ascent microplate reader (Labsystems). The GI50 value, the drug concentration lethal to 50% of the cells, was calculated from the dose-response curves that resulted from the assays.

CDK4/D1 = CDK4/D1 (Homo sapiens, UniProt P11802); test: Kinase inhibition assay CDK4/D1; assay type: biochemical; conditions: at least duplicate experiments; read-out: IC50 CDK4/D1
Experimental: as §1, §2

MV4-11 cells [4] = test: Resazurin-based viability assay, MV4-11; assay type: cell-based, Human; conditions: Homo sapiens, MV4-11; 72 h, resazurin; at least duplicate experiments
From the text: as §6, §7

K562 cells [5] = test: Flow cytometric cell cycle analysis, K562; assay type: cell-based, Human; conditions: 24 h; for effect on cell cycle (G1 arrest) in K562: 200 nM
Experimental: as §3, §4, §5

MOLM13 cells = test: Flow cytometric cell cycle analysis, MOLM13; assay type: cell-based; conditions: increasing doses, 24 h
Experimental: as §4
as §5, with “5.0).” for “5.0). Palbociclib, trilaciclib, and quizartinib were purchased from MedChemExpress, Monmouth Junction, NJ, USA.”

Sequence of CDK4/D1 (P11802 whole entry): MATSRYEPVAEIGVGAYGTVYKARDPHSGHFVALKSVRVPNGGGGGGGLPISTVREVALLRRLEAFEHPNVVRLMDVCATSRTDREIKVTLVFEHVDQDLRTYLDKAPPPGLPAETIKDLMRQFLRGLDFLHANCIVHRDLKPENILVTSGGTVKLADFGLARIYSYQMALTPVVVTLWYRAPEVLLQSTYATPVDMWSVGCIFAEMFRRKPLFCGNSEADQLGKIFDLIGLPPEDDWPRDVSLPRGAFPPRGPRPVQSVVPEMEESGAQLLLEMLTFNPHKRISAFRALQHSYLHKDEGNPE
Sequence of CDK4/D1 (P24385 whole entry partner): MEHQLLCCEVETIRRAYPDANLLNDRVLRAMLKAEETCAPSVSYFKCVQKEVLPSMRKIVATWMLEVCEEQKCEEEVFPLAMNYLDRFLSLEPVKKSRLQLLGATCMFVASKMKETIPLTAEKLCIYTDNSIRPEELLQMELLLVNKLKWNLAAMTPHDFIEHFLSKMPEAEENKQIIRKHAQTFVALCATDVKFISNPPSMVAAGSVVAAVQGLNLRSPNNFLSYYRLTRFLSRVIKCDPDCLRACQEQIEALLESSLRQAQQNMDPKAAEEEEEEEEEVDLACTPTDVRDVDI

IC50 (CDK2/E)	IC50 (FLT3-ITD) [µM]	GI50 (K562 cells [3]) [µM]	IC50 (CDK4/D1) [µM]	GI50 (MV4-11 cells [4]) [µM]	melting point [°C]	SMILES	affinity to oncogenic variants of FLT3 [1]	effect on cell cycle (G1 arrest) in MV4-11 (MV4-11 cells [2])	effect on cell cycle (G1 arrest) in K562 (K562 cells [5])	cell cycle changes in K562 (K562 cells [5]; different concentrations)	cells in the G1 phase, MV4-11 (MV4-11 cells [2]; increasing doses)	cells in the G1 phase, MOLM13 (MOLM13 cells)
–	–	–	–	–	–	CN1CCN(c2ccc(Nc3ncc4cc5n(c4n3)C3(CCCCC3)CNC5=O)nc2)CC1 [trilaciclib]	low nanomolar affinity	–	–	–	–	–
> 1 µM and 1.02 µM	0.075	3.59	0.338	1.81	–	Cn1c(=O)n(C2CCCCCCCCCCC2)c2nc(Nc3ccc(N4CCNCC4)cc3)ncc21 [14j]	–	did not significantly affect the cell cycle	–	–	–	–
–	–	–	–	–	–	CC(=O)c1c(C)c2cnc(Nc3ccc(N4CCNCC4)cn3)nc2n(C2CCCC2)c1=O [palbociclib, reference compound]	–	significantly arrest both cell lines in the G1 phase	significantly arrest both cell lines in the G1 phase	–	–	–
–	–	–	–	–	–	CC(C)(C)c1cc(NC(=O)Nc2ccc(-c3cn4c(n3)sc3cc(OCCN5CCOCC5)ccc34)cc2)no1 [quizartinib, reference compound]	–	arrested selectively only MV4-11	arrested selectively only MV4-11	did not show any changes	up to 90%	up to 90%
> 20 µM	6.9	> 100	> 20	5.65	–	Cn1c(=O)[nH]c2nc(Nc3ccc(N4CCNCC4)cc3)ncc21 [14a]	–	did not significantly affect the cell cycle	–	–	–	–
0.54 µM	2.94	16.7	1.87	1.25	152 to 154	Cc1ccccc1-n1c(=O)n(C)c2cnc(Nc3ccc(N4CCNCC4)cc3)nc21 [14n]	–	did not significantly affect the cell cycle	–	–	–	–
0.23 µM	0.085	8.21	0.012	0.44	228 to 230	CC1CCC(n2c(C(F)(F)F)nc3cnc(Nc4ccc(N5CCNCC5)cc4)nc32)CC1 (stereo not shown) [12c]	–	–	moderate G1 block	–	–	–
